Data reported in ChEMBL document CHEMBL3638862, “Radiolabeled PDE10 inhibitors” (2014).

Molecular target: cAMP and cAMP-inhibited cGMP 3',5'-cyclic phosphodiesterase 10A (Homo sapiens, UniProt Q9Y233)
Assay: Florescence Polarization Assay: The activity of the compounds in accordance with the present invention as PDE10 inhibitors may be readily determined without undue experimentation using a fluorescence polarization (FP) methodology well known in the art (Huang, W., et al., J. Biomol Screen, 2002, 7: 215). […] PDE10A2 was amplified from human fetal brain cDNA (Clontech, Mountain View, Calif.) using a forward primer corresponding to nucleotides 56-77 of human PDE10A2 (Accession No. AF127480, Genbank Identifier 4894716), containing a Kozak consensus sequence.

Chain of cAMP and cAMP-inhibited cGMP 3',5'-cyclic phosphodiesterase 10A (Q9Y233 whole entry): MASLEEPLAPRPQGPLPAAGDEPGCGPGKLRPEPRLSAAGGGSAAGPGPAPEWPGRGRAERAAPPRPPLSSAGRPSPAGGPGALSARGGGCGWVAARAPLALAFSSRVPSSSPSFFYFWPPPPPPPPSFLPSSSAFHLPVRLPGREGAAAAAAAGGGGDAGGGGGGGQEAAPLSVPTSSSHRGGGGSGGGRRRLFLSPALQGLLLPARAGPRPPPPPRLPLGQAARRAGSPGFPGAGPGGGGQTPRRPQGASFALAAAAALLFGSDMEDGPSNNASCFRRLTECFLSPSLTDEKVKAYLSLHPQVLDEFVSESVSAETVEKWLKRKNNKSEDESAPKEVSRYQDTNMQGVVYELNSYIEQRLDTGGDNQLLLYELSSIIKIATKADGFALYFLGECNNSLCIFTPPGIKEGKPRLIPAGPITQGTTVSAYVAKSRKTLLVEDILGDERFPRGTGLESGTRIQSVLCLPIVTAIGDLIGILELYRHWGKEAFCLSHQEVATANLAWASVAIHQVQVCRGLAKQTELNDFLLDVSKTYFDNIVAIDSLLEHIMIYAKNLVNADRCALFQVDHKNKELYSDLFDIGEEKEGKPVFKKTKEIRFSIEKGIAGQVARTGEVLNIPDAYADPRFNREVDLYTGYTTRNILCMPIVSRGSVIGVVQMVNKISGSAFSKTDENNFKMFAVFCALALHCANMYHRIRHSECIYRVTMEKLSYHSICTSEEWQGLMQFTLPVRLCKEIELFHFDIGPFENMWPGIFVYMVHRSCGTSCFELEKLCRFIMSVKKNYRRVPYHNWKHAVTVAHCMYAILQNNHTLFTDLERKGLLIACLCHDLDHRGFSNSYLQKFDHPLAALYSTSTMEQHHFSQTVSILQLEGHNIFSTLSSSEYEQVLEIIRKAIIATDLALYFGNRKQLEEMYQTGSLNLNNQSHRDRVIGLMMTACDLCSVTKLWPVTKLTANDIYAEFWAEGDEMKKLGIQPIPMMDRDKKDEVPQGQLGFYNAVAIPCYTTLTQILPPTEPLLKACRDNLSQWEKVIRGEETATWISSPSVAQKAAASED

Question: For `COc1ccc(-n2c(CCN3C(=O)c4cccc(OCC(F)(F)F)c4C3=O)nc3ccccc3c2=O)cc1`, which Ki is on record?
Answer: The Ki was 0.79 nM.
